Measurements from patent publication US11866416B2, “Streptococcus mutans glucosyl transferase inhibitors for dental caries therapy” (UAB Research Foundation, priority 2018, dated 2024).
Values after ≈ are worked out from the molar mass of the structure shown. Read-outs that look alike come from different tables or passages of the source.

Tests used:
S. mutans = experiment: microbe, parasite or virus in culture; assay type: cell-based, Streptococcus mutans; conditions: for MIC50: Streptococcus mutans; for Selectivity: growth versus biofilm
Description: Cell viability of S. mutans, S. gordonii, S. sanguinis, Aggregatibacter actinomycetemcomitans and Actinomyces. […] The number of colony-forming units (CFU) per milliliter of each sample treated with selected compounds at different concentrations was enumerated after incubation for 24 h at 37° C. and compared to the values obtained from the DMSO control group. Overnight broth cultures were transferred by 1:50 dilutions into fresh THB medium and were allowed to grow until mid-exponential phase (OD470 nm 0.6) before transfer to 96-well plates containing desired concentration of the compound. After 16 h incubation, bacterial growth was measured at OD470, and normalized to the DMSO control (100%).
Cell viability of S. mutans and commensal S. gordonii and S. sanguinis. Effects of lead small molecules on cell viability were examined. The number of colony-forming units (CFU) per milliliter for each compound at different concentrations was determined after incubation for 24 h at 37° C. and compared to the values obtained from the DMSO control group.
Cell viability of S. mutans and commensal S. gordonii and S. sanguinis. […] DMSO served as a control group and provided a relative comparison for the number of colony-forming units (CFU) per milliliter for each compound at different concentrations was determined after incubation for 24 h at 37° C. The final concentration of DMSO used in the assays was 1%.

S. mutans biofilm = S. mutans biofilm formation and inhibition assay (96-well plates, crystal violet); assay type: cell-based, Streptococcus mutans; conditions: for IC50: Streptococcus mutans
Description: Biofilm assays using 96-well flat-bottom polystyrene microtiter plates were performed to evaluate S. mutans biofilm formation at various conditions as described (Liu et al. (2011) Antimicrobial Agents and Chemotherapy 55, 2679; Zhang et al. (2015) International Journal of Antimicrobial Agents 46, 174), the disclosures of which are incorporated herein by reference in their entirety). Each assay was replicated three times. Compounds that inhibited biofilm formation at minimum concentration (MBIC) were determined by serial dilutions.
S. mutans biofilm formation and inhibition assays. […] Each assay was replicated three times. Minimum biofilm inhibitory concentration (MBIC) of compounds was determined by serial dilutions.
S. mutans biofilm formation and inhibition assays. Biofilm assays using 96-well flat-bottom polystyrene microtiter plates were performed to evaluate S. mutans biofilm formation at various conditions as described. Each assay was replicated […]. Compounds that inhibited 50% biofilm formation were determined by serial dilutions.
S. mutans biofilm formation and inhibition assays. A well-established protocol to study S. mutans biofilm formation in 96-well flat-bottom polystyrene microtiter plates was used, in triplicate (Mattos-Graner, R. O.; Napimoga, M. H.; Fukushima, K.; Duncan, M. J.; Smith, D. J., Comparative analysis of Gtf isozyme production and diversity in isolates of Streptococcus mutans with different biofilm growth phenotypes. Journal of clinical microbiology 2004, 42 (10), 4586-4592). The stock solutions were made up in 100% DMSO, and final concentration of DMSO used in the assays was 1%. Minimum biofilm inhibitory concentration (MBIC) of compounds was determined by serial dilutions.

[1] = Table 2, >300 = no inhibition up to 300 μM, read-out: Growth Inhibition MIC50
[2] = Table 1, >500 = no inhibition up to 500 μM, read-out: Biofilm Inhibition IC50
[3] = Table 2, read-out: Biofilm Inhibition IC50
[4] = Table 3, >300 = no inhibition up to 300 μM, NI = no inhibition up to 400 μM, read-out: Growth Inhibition MIC50
[5] = Table 3, read-out: Biofilm Inhibition IC50
[6] = Table 6, chalcones, 200 μM, NI = no inhibition

Row | Structure (SMILES) | MIC50 (S. mutans; [1]) | IC50 (S. mutans biofilm; [2]) | IC50 (S. mutans biofilm; [3]) | also measured
1 | NC(=O)c1ccc(NC(=O)c2cccc3ccccc23)cc1 [BR] | > 300 µM | 167 µM | 167 µM | –
2 | O=C(/C=C/c1ccc(O)cc1O)c1cccc(O)c1 [RZ-1-86] | – | – | – | MIC50 (S. mutans; [4]): 469 ± 16 µM (≈ 120 µg/mL); IC50 (S. mutans biofilm; [5]): 32 ± 5 µM
3 | COc1ccc(/C=C/C(=O)c2ccc(OC)c(OC)c2O)c(OC)c1 [SN-II-24-B6] | – | – | – | MIC50 (S. mutans; [4]): 231 ± 12 µM (≈ 79.4 µg/mL); IC50 (S. mutans biofilm; [5]): 101 ± 3 µM
4 | O=C(/C=C/c1ccc(O)c(O)c1)O[C@@H]1C[C@](O)(C(=O)O)C[C@@H](O)[C@H]1O [Entry 10] | – | – | – | MIC50 (S. mutans; Table 4, stilbenes, average of at least 5 measurements, NI = no inhibition, read-out: Growth MIC50): 1720 ± 53 µM (≈ 611 µg/mL); Selectivity (S. mutans; Table 4, stilbenes): 3.3; Growth MIC50 (S. mutans; Table 8, stilbenes, average of at least 5 measurements, NI = no inhibition): 1724 ± 53 µM; Selectivity (S. mutans; Table 8, stilbenes): 3.3; IC50 (S. mutans biofilm; Table 4, stilbenes, NI = no inhibition, read-out: Biofilm IC50): 518 ± 85 µM; IC50 (S. mutans biofilm; Table 8, stilbenes, NI = no inhibition, read-out: Biofilm IC50): 518 ± 85 µM
5 | O=c1c(O)c(-c2cc(O)c(O)c(O)c2)oc2cc(O)ccc12 [PAY] | – | – | – | IC50 (S. mutans biofilm; [5]): 74.5 ± 9.8 µM
6 | CC(C)(C)OC(=O)NCc1ccccc1NC(=O)c1ccc2ccccc2c1 [AO] | > 300 µM | 56.8 µM | 56.8 µM | –
7 | COc1cc(-c2[o+]c3cc(O)cc(O)c3cc2O)cc(O)c1O [PAC] | – | – | – | MIC50 (S. mutans; [4]): 274 ± 45.8 µM; IC50 (S. mutans biofilm; [5]): 61.2 ± 2.3 µM
8 | COC(=O)c1cccc(NC(=O)c2cc3cc([N+](=O)[O-])ccc3[nH]2)c1 [AB] | > 300 µM | 31.4 µM | 31.4 µM | –
9 | NC(=O)c1ccccc1NC(=O)c1cc2cc([N+](=O)[O-])ccc2[nH]1 [Compound 3H] | – | > 500 µM | – | –
10 | O=c1c(O)c(-c2ccc(O)cc2O)oc2ccccc12 [SN-II-79] | – | – | – | MIC50 (S. mutans; [4]): 30 ± 1 µM (≈ 8.11 µg/mL); IC50 (S. mutans biofilm; [5]): 65.9 ± 1 µM
11 | CCc1ccccc1NC(=O)c1cc2cc([N+](=O)[O-])ccc2s1 [BL] | > 300 µM | 158 µM | 158 µM | –
12 | NC(=O)c1ccccc1NC(=O)c1cc2ccccc2[nH]1 [Compound 3E] | – | > 500 µM | – | –
13 | CCc1ccccc1NC(=O)c1cnc2ccccc2c1 [BH] | – | 204 µM | – | –
14 | COC(=O)c1ccc(NC(=O)c2cc3ccccc3s2)cc1 [Compound 3V] | > 300 µM | 41.2 µM | 41.2 µM | –
15 | NC(=O)c1cccc(NC(=O)c2cc3cc([N+](=O)[O-])ccc3o2)c1 [Compound 3Z] | > 300 µM | 38.8 µM | 38.8 µM | –
16 | NC(=O)c1ccccc1NC(=O)c1cc2cc([N+](=O)[O-])ccc2o1 [Compound 3K] | > 300 µM | 103 µM | 103 µM | –
17 | NCc1ccccc1NC(=O)c1cnc2ccccc2c1 [AL] | > 300 µM | 136 µM | 136 µM | –
18 | NC(=O)c1cccc(NC(=O)c2cc3cc([N+](=O)[O-])ccc3s2)c1 [Compound 3P] | > 300 µM | 42.3 µM | 42.3 µM | –
19 | COc1ccc(/C=C/C(=O)c2ccc(OC)c(OC)c2)cc1O [Compound 13] | – | – | – | Growth inhibition 200 μM (%) (S. mutans; [6]): 30 ± 0.7%; growth inhibition at 200 μM (S. mutans; chalcones, 200 μM): 30%; activity of stilbenes against S. mutans growth (S. mutans; stilbenes): not active against biofilm and growth; Biofilm inhibition 200 μM (%) (S. mutans biofilm; [6]): 27 ± 4%; biofilm inhibition at 200 μM (S. mutans biofilm; chalcones, 200 μM): 30%; activity of stilbenes against S. mutans biofilm (S. mutans biofilm; stilbenes): not active against biofilm and growth
20 | NC(=O)c1cccc(NC(=O)c2ccc3ccccc3c2O)c1 [BP] | – | 270 µM | – | –
21 | NC(=O)c1cccc(NC(=O)c2ccc3ccccc3c2)c1 [AT] | > 300 µM | 67.7 µM | 67.7 µM | –
22 | COC(=O)c1cccc(NC(=O)c2cc3cc(N/C(=N\C(=O)OC(C)(C)C)NC(=O)OC(C)(C)C)ccc3o2)c1 [SN-II-106] | 29 µM (≈ 16 µg/mL) | – | 14 µM | –
23 | COc1ccc(/C=C2\Oc3ccccc3C2=O)c(OC)c1 [LC-I-203] | – | – | – | MIC50 (S. mutans; [4]): > 300 µM; IC50 (S. mutans biofilm; [5]): 40.6 ± 3 µM
24 | COc1ccc(/C=C/C(=O)c2ccc3c(c2)OCO3)cc1O [Compound 14] | – | – | – | effect on S. mutans biofilm in the preliminary screen (S. mutans biofilm; chalcones, 200 μM): no anti-biofilm effects
25 | Cc1ccc(S(=O)(=O)Nc2ccccc2N)cc1 [BU] | – | > 500 µM | – | –
26 | COC(=O)c1ccccc1NC(=O)c1cc2cc([N+](=O)[O-])ccc2o1 [BB] | > 300 µM | 71.4 µM | 71.4 µM | –
27 | CC(C)(C)OC(=O)NCc1ccccc1NC(=O)c1cc2cc([N+](=O)[O-])ccc2s1 [AJ] | > 300 µM | 51.5 µM | 51.5 µM | –
28 | NC(=O)c1ccc(NC(=O)c2cnc3ccccc3c2)cc1 [Compound 3T] | – | > 500 µM | – | –
